Assay results from the supplement of paper PMC10307832.

Legend:
Assay in all cases: relative viability (nuclei count vs DMSO), 5 days (fraction); higher = more cells survive
PC-14 = test system: PC-14
How it was run: (§1)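 Lung cancer cell lines were seeded in 1536-well plates and dosed by pin tool the next day, with either a single drug or a fixed anchor-drug dose combined with five library-drug doses (not always all listed) spaced in √10 steps. Five days later, one step fixed the cells and stained their nuclei (final 0.05% Triton X-100, 1% formaldehyde, 1 ug/ml Hoechst), and nuclei were counted on 4× images. Relative viability is the nuclei count in treated wells divided by the count in vehicle wells, and each value is the median of duplicate plates.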

HCC-366 = test system: HCC-366
How it was run: as §1

NCI-H23 = test system: NCI-H23
How it was run: as §1

NCI-H661 = test system: NCI-H661
How it was run: as §1

NCI-H2009 = test system: NCI-H2009
How it was run: as §1

LC-2-ad = test system: LC-2-ad
How it was run: as §1

NCI-H2342 = test system: NCI-H2342
How it was run: as §1

NCI-H1975 = test system: NCI-H1975
How it was run: as §1

HCC-827 = test system: HCC-827
How it was run: as §1

NCI-H2085 = test system: NCI-H2085
How it was run: as §1

H3255 = test system: H3255
How it was run: as §1

NCI-H2228 = test system: NCI-H2228
How it was run: as §1

COR-L23 = test system: COR-L23
How it was run: as §1

NCI-H1437 = test system: NCI-H1437
How it was run: as §1

UMC-11 = test system: UMC-11
How it was run: as §1

ABC-1 = test system: ABC-1
How it was run: as §1

NCI-H1666 = test system: NCI-H1666
How it was run: as §1

PC-3 [JPC-3] = test system: PC-3 [JPC-3]
How it was run: as §1

NCI-H2087 = test system: NCI-H2087
How it was run: as §1

SK-MES-1 = test system: SK-MES-1
How it was run: as §1

LXF-289 = test system: LXF-289
How it was run: as §1

HCC-15 = test system: HCC-15
How it was run: as §1

LCLC-103H = test system: LCLC-103H
How it was run: as §1

SMILES: Cc1csc(=NC2CCCCC2)n1/N=C/c1ccc(O)c(O)c1O [MIM1] + O=C(CCCCCCC(=O)Nc1ccccc1)NO [Vorinostat] (partner 1 µM)
- relative viability (PC-14; first compound 0.2 µM): 0.746
- relative viability (PC-14; first compound 0.6325 µM): 0.616
- relative viability (PC-14; first compound 2 µM): 0.478
- relative viability (PC-14; first compound 6.325 µM): 0.456
- relative viability (PC-14; first compound 20 µM): 0.118
- relative viability (HCC-366; first compound 0.2 µM): 0.33
- relative viability (HCC-366; first compound 2 µM): 0.243
- relative viability (HCC-366; first compound 6.325 µM): 0.0699
- relative viability (HCC-366; first compound 20 µM): 0.0271
- relative viability (NCI-H23; first compound 0.2 µM): 0.55
- relative viability (NCI-H23; first compound 0.6325 µM): 0.277
- relative viability (NCI-H23; first compound 2 µM): 0.478
- relative viability (NCI-H23; first compound 6.325 µM): 0.19
- relative viability (NCI-H23; first compound 20 µM): 0.123
- relative viability (NCI-H661; first compound 0.2 µM): 0.764
- relative viability (NCI-H661; first compound 0.6325 µM): 0.748
- relative viability (NCI-H661; first compound 2 µM): 0.742
- relative viability (NCI-H661; first compound 6.325 µM): 0.406
- relative viability (NCI-H661; first compound 20 µM): 0.292
- relative viability (NCI-H2009; first compound 0.2 µM): 0.717
- relative viability (NCI-H2009; first compound 0.6325 µM): 0.713
- relative viability (NCI-H2009; first compound 2 µM): 0.685
- relative viability (NCI-H2009; first compound 6.325 µM): 0.506
- relative viability (NCI-H2009; first compound 20 µM): 0.372
- relative viability (LC-2-ad; first compound 0.2 µM): 0.698
- relative viability (LC-2-ad; first compound 0.6325 µM): 0.306
- relative viability (LC-2-ad; first compound 2 µM): 0.777
- relative viability (LC-2-ad; first compound 6.325 µM): 0.267
- relative viability (LC-2-ad; first compound 20 µM): 0.204
- relative viability (NCI-H2342; first compound 0.2 µM): 0.727
- relative viability (NCI-H2342; first compound 0.6325 µM): 0.719
- relative viability (NCI-H2342; first compound 2 µM): 0.774
- relative viability (NCI-H2342; first compound 6.325 µM): 0.589
- relative viability (NCI-H2342; first compound 20 µM): 0.905
- relative viability (NCI-H1975; first compound 0.2 µM): 0.682
- relative viability (NCI-H1975; first compound 0.6325 µM): 0.708
- relative viability (NCI-H1975; first compound 2 µM): 0.644
- relative viability (NCI-H1975; first compound 6.325 µM): 0.239
- relative viability (NCI-H1975; first compound 20 µM): 0.204
- relative viability (HCC-827; first compound 0.2 µM): 0.871
- relative viability (HCC-827; first compound 0.6325 µM): 0.731
- relative viability (HCC-827; first compound 2 µM): 0.777
- relative viability (HCC-827; first compound 6.325 µM): 0.231
- relative viability (HCC-827; first compound 20 µM): 0.349
- relative viability (NCI-H2085; first compound 0.2 µM): 0.765
- relative viability (NCI-H2085; first compound 0.6325 µM): 0.728
- relative viability (NCI-H2085; first compound 2 µM): 0.763
- relative viability (NCI-H2085; first compound 6.325 µM): 0.547
- relative viability (NCI-H2085; first compound 20 µM): 0.563
- relative viability (H3255; first compound 0.2 µM): 0.776
- relative viability (H3255; first compound 0.6325 µM): 0.901
- relative viability (H3255; first compound 2 µM): 0.759
- relative viability (H3255; first compound 6.325 µM): 0.67
- relative viability (H3255; first compound 20 µM): 0.321
- relative viability (NCI-H2228; first compound 0.2 µM): 0.641
- relative viability (NCI-H2228; first compound 0.6325 µM): 0.909
- relative viability (NCI-H2228; first compound 2 µM): 0.589
- relative viability (NCI-H2228; first compound 6.325 µM): 0.19
- relative viability (NCI-H2228; first compound 20 µM): 0.206
- relative viability (COR-L23; first compound 0.2 µM): 0.42
- relative viability (COR-L23; first compound 0.6325 µM): 0.441
- relative viability (COR-L23; first compound 2 µM): 0.371
- relative viability (COR-L23; first compound 6.325 µM): 0.314
- relative viability (COR-L23; first compound 20 µM): 0.162
- relative viability (NCI-H1437; first compound 0.2 µM): 0.712
- relative viability (NCI-H1437; first compound 0.6325 µM): 0.843
- relative viability (NCI-H1437; first compound 2 µM): 0.833
- relative viability (NCI-H1437; first compound 6.325 µM): 0.313
- relative viability (NCI-H1437; first compound 20 µM): 0.197
- relative viability (UMC-11; first compound 0.2 µM): 0.501
- relative viability (UMC-11; first compound 0.6325 µM): 0.392
- relative viability (UMC-11; first compound 2 µM): 0.438
- relative viability (UMC-11; first compound 6.325 µM): 0.243
- relative viability (UMC-11; first compound 20 µM): 0.147
- relative viability (ABC-1; first compound 0.2 µM): 1.42
- relative viability (ABC-1; first compound 0.6325 µM): 0.87
- relative viability (ABC-1; first compound 2 µM): 0.994
- relative viability (ABC-1; first compound 6.325 µM): 0.497
- relative viability (ABC-1; first compound 20 µM): 0.247
- relative viability (NCI-H1666; first compound 0.2 µM): 1.01
- relative viability (NCI-H1666; first compound 0.6325 µM): 0.922
- relative viability (NCI-H1666; first compound 2 µM): 1.08
- relative viability (NCI-H1666; first compound 6.325 µM): 0.769
- relative viability (NCI-H1666; first compound 20 µM): 0.477
- relative viability (PC-3 [JPC-3]; first compound 0.2 µM): 0.776
- relative viability (PC-3 [JPC-3]; first compound 0.6325 µM): 0.714
- relative viability (PC-3 [JPC-3]; first compound 2 µM): 0.726
- relative viability (PC-3 [JPC-3]; first compound 6.325 µM): 0.657
- relative viability (PC-3 [JPC-3]; first compound 20 µM): 0.376
- relative viability (NCI-H2087; first compound 0.2 µM): 0.68
- relative viability (NCI-H2087; first compound 0.6325 µM): 0.536
- relative viability (NCI-H2087; first compound 2 µM): 0.877
- relative viability (NCI-H2087; first compound 6.325 µM): 0.596
- relative viability (NCI-H2087; first compound 20 µM): 0.497
- relative viability (SK-MES-1; first compound 0.2 µM): 1.02
- relative viability (SK-MES-1; first compound 0.6325 µM): 0.953
- relative viability (SK-MES-1; first compound 2 µM): 0.959
- relative viability (SK-MES-1; first compound 6.325 µM): 0.594
- relative viability (SK-MES-1; first compound 20 µM): 0.2
- relative viability (LXF-289; first compound 0.2 µM): 0.777
- relative viability (LXF-289; first compound 0.6325 µM): 0.462
- relative viability (LXF-289; first compound 2 µM): 0.665
- relative viability (LXF-289; first compound 6.325 µM): 0.499
- relative viability (LXF-289; first compound 20 µM): 0.304
- relative viability (HCC-15; first compound 0.2 µM): 0.789
- relative viability (HCC-15; first compound 0.6325 µM): 0.81
- relative viability (HCC-15; first compound 2 µM): 0.87
- relative viability (HCC-15; first compound 6.325 µM): 0.49
- relative viability (HCC-15; first compound 20 µM): 0.167
- relative viability (LCLC-103H; first compound 0.2 µM): 0.731
- relative viability (LCLC-103H; first compound 0.6325 µM): 0.39
- relative viability (LCLC-103H; first compound 2 µM): 0.768
- relative viability (LCLC-103H; first compound 6.325 µM): 0.48
- relative viability (LCLC-103H; first compound 20 µM): 0.342
